Assay results published in patent US20130130317A1, “METHOD FOR PRODUCING SUBSTANCE” (KYOWA HAKKO KIRIN CO., LTD, priority 2010, published 2013).
In brackets after ≈: the same amount, converted by molar mass. Peptide text beside a SMILES is read from it.

Assays:
[1] = Precipitation in media for cell culture on storage; assay type: physicochemical; details: 5.0 mmol/L in medium, stored at 4° C., after 3 days; for precipitation in the medium for cell culture: 20° C. or room temperature
Method: The following media for cell culture were prepared to compare differences in precipitation therebetween.
In 700 mL of water, 31.6 g of AGT Efficient Feed A (manufactured by Invitrogen, Catalog No. AG090231P7), 0.50 mL of polyamine solution (manufactured by Invitrogen, Catalog No. AG090232P8), 27.2 g of AGT Efficient Feed B (manufactured by Invitrogen, Catalog No. AG090230P7), 30.0 g of Hydrolysate (manufactured by DMV, Catalog No. P42474), 70.0 g of glucose (manufactured by Wako Pure Chemical Industries, Catalog No. 041-00595), and 5.0 g of L-(+)-glutamine (manufactured by Wako Pure Chemical Industries, Catalog No. 078-00525) or 7.4 g of L-alanyl-L-glutamine (manufactured by Kyowa Hakko Bio) were mixed.
After stirring for approximately 30 minutes, 7.0 mL of 5 mol/L HCl aqueous solution (manufactured by Wako Pure Chemical Industries, Catalog No. 081-05435) was added, followed by further stirring for approximately 20 minutes and pH was adjusted to 6.5. Thereafter, 50 mL of an alkaline solution containing 0.5 mol/L of NaOH (manufactured by Junsei Chemical, Catalog No. 39155-0301), 100 mmol/L of L-tyrosine disodium salt (manufactured by Sigma, Catalog No. T1145-100G), and 100 mmol/L of L-cystine dihydrochloride (manufactured by Wako Pure Chemical Industries, Catalog No. 034-05322) was added to the prepared aqueous solution of pH 6.5.
A volume of the aqueous solution was adjusted to 1 L with water, followed by stirring for approximately 20 minutes so as to prepare a medium for cell culture. In the medium for cell culture, L-tyrosine disodium salt and L-cystine dihydrochloride were substituted with the same concentration (5.0 mmol/L) of L-alanyl-L-tyrosine (manufactured by Kyowa Hakko Bio) and bis-L-alanyl-L-cysteine (manufactured by Kyowa Hakko Bio) to prepare media for cell culture, respectively. The prepared media for cell culture were stored under three conditions of at 4° C. (refrigerator, manufactured by Hoshizaki), 20° C. (e-Cooling Bucket, manufactured by Taitec), or room temperature.

[2] = cited from earlier work
[3] = H2O, 20° C.; cited from earlier work
[4] = system: antibody X-expressing CHO cells; experiment: Fed-batch culture of CHO cells: number of living cells and survival rate; assay type: cell-based, Chinese hamster; details: 13 days of culture
Method: The following feed media for cell culture were prepared, and fed-batch culture was carried out using CHO cells for comparison.
(§1) The feed medium was composed of 31.6 g/L of AGT Efficient Feed A (manufactured by Invitrogen, Catalog No. AG090231P7), 0.50 ml/L of polyamine solution (manufactured by Invitrogen, Catalog No. AG090232P8), 27.2 g/L of AGT Efficient Feed B (manufactured by Invitrogen, Catalog No. AG090230P7), 5.0 g/L of L-(+)-glutamine (manufactured by Wako Pure Chemical Industries, Catalog No. 078-00525), 30.0 g/L of hydrolysates (manufactured by DMV, Catalog No. P42474), 70.0 g/L of glucose (manufactured by Wako Pure Chemical Industries, Catalog No. 041-00595), 5.0 mmol/L of L-alanyl-L-tyrosine (Kyowa Hakko Bio), and 5.0 mmol/L, 10 mmol/L or 16 mmol/L of bis-L-alanyl-L-cysteine (manufactured by Kyowa Hakko Bio), and prepared in the same manner as in Example 1.
(§2) In the culture using antibody X-expressing CHO cells, 4.0 mmol/L of glutamine (manufactured by Invitrogen, Catalog No. 25030)-containing EX-CELL325 (manufactured by SAFC, Catalog No. 14340C-1000mL) was used as a main culture medium. The feed medium was added to perform fed-batch culture.

[5] = system: antibody X-expressing CHO cells; experiment: Antibody titer in fed-batch culture of CHO cells; assay type: cell-based, Chinese hamster; details: 13 days of culture
Method: as §1, §2
In order to examine antibody production, antibody titer was measured at 13 days of culture in the fed-batch culture of CHO cells having an ability to produce the antibody of Example 2. In the feed medium, the […] 0.75 g/L at 5.0 mmol/L, 0.79 g/L at 10 mmol/L, and 0.78 g/L at 16 mmol/L.

L-tyrosine disodium salt
precipitation in the medium for cell culture [1]: precipitations were observed
precipitation in the medium, low temperature compared with other storage conditions [1]: more precipitation was observed

Cl.N[C@@H](CS)C(=O)O [cysteine hydrochloride]
stability in an aqueous solution [2]: low stability

N[C@@H](CSSC[C@H](N)C(=O)O)C(=O)O [cystine]
solubility [3]: 0.1 g/L (≈ 416 µM)

Cl.Cl.N[C@@H](CSSC[C@H](N)C(=O)O)C(=O)O [L-cystine dihydrochloride]
precipitation in the medium for cell culture [1]: precipitations were observed
precipitation in the medium, low temperature compared with other storage conditions [1]: more precipitation was observed

C[C@H](N)C(=O)N(C(=O)[C@H](C)N)[C@@H](CS)C(=O)O [bis-L-alanyl-L-cysteine]
precipitation in the medium for cell culture [1]: no precipitation
Number of living cells ([4]; 5 mmol/L in feed medium): 28.6 10^5 cells/mL
Survival rate ([4]; 5 mmol/L in feed medium): 55.0%
Number of living cells ([4]; 10 mmol/L in feed medium): 44.1 10^5 cells/mL
Survival rate ([4]; 10 mmol/L in feed medium): 78.7%
Number of living cells ([4]; 16 mmol/L in feed medium): 58.1 10^5 cells/mL
Survival rate ([4]; 16 mmol/L in feed medium): 86.6%
antibody titer ([5]; 5.0 mmol/L in feed medium): 0.75 g/L
antibody titer ([5]; 10 mmol/L in feed medium): 0.79 g/L
antibody titer ([5]; 16 mmol/L in feed medium): 0.78 g/L

C[C@H](N)C(=O)N[C@@H](Cc1ccc(O)cc1)C(=O)O [L-alanyl-L-tyrosine] (H-Ala-Tyr-OH)
precipitation in the medium for cell culture [1]: no precipitation
